Test results taken from patent US9309276B2, “Synthetic lipid A derivative” (University of Georgia Research Foundation, Inc., priority 2007, dated 2016).

Tested on: RAW 264.7 γNO(−) cells
Assay: Cytokine induction and ELISAs in mouse macrophages (RAW 264.7 γNO(−) cells)
Format: cell-based
Conditions: for secretion of cytokines (TNF-α, IL-6, IP-10, IFN-β and IL-1β): Example III, data not shown; for Cytokine top value of dose-response curve, pro Il-1β: cell lysates; for Cytokine top value of dose-response curve, pro Il-1β / TNF-α and IFN-β production, dose response (in words) / Cytokine top value of dose-response curve, IFN-β / Cytokine top value of dose-response curve, IL-6 / Cytokine top value of dose-response curve, IP-10 / Cytokine top value of dose-response curve, RANTES / Cytokine top value of dose-response curve, TNF-α: 5.5 h; for Cytokine top value of dose-response curve, pro Il-1β / Cytokine top value of dose-response curve, IFN-β / Cytokine top value of dose-response curve, IL-6 / Cytokine top value of dose-response curve, IP-10 / Cytokine top value of dose-response curve, RANTES / Cytokine top value of dose-response curve, TNF-α: best-fit value ± std. error; for TNF-α and IFN-β production, dose response (in words) / Cytokine top value of dose-response curve, IFN-β / Cytokine top value of dose-response curve, IL-6 / Cytokine top value of dose-response curve, IP-10 / Cytokine top value of dose-response curve, RANTES / Cytokine top value of dose-response curve, TNF-α / Cytokine top value of dose-response curve, IL-1β: supernatant; for TNF-α and IFN-β production, dose response (in words): wide range of concentrations; for Cytokine top value of dose-response curve, IL-1β: 24 h, best-fit value ± std. error (# plateau not reached for LPS)
Procedure: Mouse macrophages (RAW 264.7 γNO(−) cells) were exposed over a wide range of concentrations to compounds 1-5 and E. coli 055:B5 LPS. After 5.5 hours, the supernatants were harvested and examined for mouse TNF-α and IFN-β using a commercial and in-house developed capture ELISA assay, respectively. Potencies (EC50, concentration producing 50% activity) and efficacies (maximal level of production) were determined by fitting the dose-response curves to a logistic equation using PRISM software. […] It has also been shown that removal of the KDO moieties by mild acidic treatment reduces cellular responses (Demchenko et al., J. Am. Chem. Soc. 2003, 125, 6103-6112).
Having established the EC50 values of TNF-α and IFN-β secretion by compounds 1-5 and E. coli 055:B5 LPS, attention was focused on IL-6, IP-10, RANTES, and IL-1β responses. Thus, the previously harvested supernatants were analyzed for these cytokines using capture ELISA assays (FIG. 4, Table 1). For IL-6, IP-10, and RANTES, a short incubation time of 5.5 hrs was sufficient for detection. To achieve significant IL-1β secretion, the incubation had to be extended to 24 hrs. […] IL-1β is expressed as a pro-protein (pro-IL-1β), which is cleaved by caspase-1 into its active form (IL-1β), which is then secreted. Indeed, analyzing IL-1β of the cell lysates by Western blotting confirmed that it was present as a pro-protein (data not shown). TNF-α is also produced as a pro-protein, which is proteolitically cleaved by tumor necrosis factor-α converting enzyme (TACE) (Skotnicki and Levin, Annu. Rep. Med. Chem. 2003, 38, 153-162; Duffy et al., Thromb. Haemost. 2003, 89, 622-631). […] Furthermore, for each of the synthetic compounds and LPS, EC50 values of secreted TNF-α and intracellular pro-IL-1β were very similar. However, EC50 values for secreted mature IL-1β were larger by as much as 100-fold.
RAW 264.7 γNO(−) cells were plated on the day of the exposure assay as 2×10^5 cells/well in 96-well tissue culture plates (Nunc). Cells were incubated with different stimuli for 5.5 and 24 hours in replicates of five. Culture supernatants were then collected, pooled, and stored frozen (−80° C.) until assayed for cytokine production. After removal of the supernatant, cells were lysed by adding PBS containing Tween 20 (0.01%) and BSA (1%) in the same volume as that of the supernatant and sonicating for 5 min. The cell lysates were pooled and stored frozen (−80° C.) until assayed for cytokine production.
All cytokine ELISAs were performed in 96-well MaxiSorp plates (Nunc). Cytokine DuoSet ELISA Development Kits (R&D Systems) were used for the cytokine quantification of mouse TNF-α, IL-6, IP-10, RANTES, and IL-1β according to the manufacturer's instructions. The absorbance was measured at 450 nm with wavelength correction set to 540 nm using a microplate reader (BMG Labtech). Concentrations of IFN-β in culture supernatants were determined as follows. ELISA MaxiSorp plates were coated with rabbit polyclonal antibody against mouse IFN-β (PBL Biomedical Laboratories). IFN-β in standards and samples was allowed to bind to the immobilized antibody. Rat anti-mouse IFN-β antibody (USBiological) was then added, producing an antibody-antigen-antibody “sandwich”. Next, horseradish peroxidase (HRP) conjugated goat anti-rat IgG (H+L) antibody (Pierce) and a chromogenic substrate for HRP 3,3′,5,5′-tetramethylbenzidine (TMB; Pierce) were added. After the reaction was stopped, the absorbance was measured at 450 nm with wavelength correction set to 540 nm. All cytokine values are presented as the means±SD of triplicate measurements, with each experiment being repeated three times.
Concentration-response data were analyzed using nonlinear least-squares curve fitting in Prism (GraphPad Software, Inc.). […] The Hillslope was set at 1 to be able to compare the EC50 values of the different inducers. […]

Row | SMILES | secretion of cytokines (TNF-α, IL-6, IP-10, IFN-β and IL-1β) | Cytokine top value of dose-response curve, pro Il-1β | TNF-α and IFN-β production, dose response (in words) | Cytokine top value of dose-response curve, IFN-β | Cytokine top value of dose-response curve, IL-6 | Cytokine top value of dose-response curve, IP-10 | Cytokine top value of dose-response curve, RANTES | Cytokine top value of dose-response curve, TNF-α | Cytokine top value of dose-response curve, IL-1β
1 | CCCCCCCCCCCCCCCC(=O)O[C@H](CCCCCCCCCCCC(C)C)CC(=O)N[C@H]1[C@H](OC[C@H]2O[C@H](OP(=O)(O)O)[C@H](NC(=O)C[C@H](O)CCCCCCCCCCCC(C)C)[C@@H](OC(=O)C[C@H](O)CCCCCCCCCCCCC)[C@@H]2O)O[C@H](CO)[C@@H](O)[C@@H]1O [Compound 103, 6-O-{2-Deoxy-2-[(R)-3-hexadecanoyloxy-15-methyl-hexadecanoylamino]-β-D-glucopyranosyl}-3-O—[(R)-3-hydroxy-hexadecanoyl]-2-deoxy-2-[(R)-3-hydroxy-15-methyl-hexadecanoylamino]-α-D-glucopyranose 1-phosphate] | did not lead to secretion of cytokines |  |  |  |  |  |  |  | 
2 | CCCCCCCCCCCCCCCC(=O)O[C@H](CCCCCCCCCCCC(C)C)CC(=O)N[C@H]1[C@H](OC[C@H]2O[C@H](OP(=O)(O)O)[C@H](NC(=O)C[C@H](O)CCCCCCCCCCCC(C)C)[C@@H](O)[C@@H]2O)O[C@H](CO)[C@@H](O)[C@@H]1ONC(=O)C[C@H](O)CCCCCCCCCC(C)C [Compound 104, 6-O-{2-Deoxy-2-[(R)-3-hexadecanoyloxy-15-methyl-hexadecanoylamino]-3-O—[(R)-3-hydroxy-13-methyl-tetradecanoylamino]-β-D-glucopyranosyl}-2-deoxy-2-[(R)-3-hydroxy-15-methyl-hexadecanoylamino]-α-D-glucopyranose 1-phosphate] | did not lead to secretion of cytokines |  |  |  |  |  |  |  | 
3 | CCCCCCCCCCCCCC(=O)OC(CCCCCCCCCCC)CC(=O)OC1C(NC(=O)CC(CCCCCCCCCCC)OC(=O)CCCCCCCCCCC)C(OCC2OC(OP(=O)(O)O)C(NC(=O)CC(O)CCCCCCCCCCC)C(OC(=O)CC(O)CCCCCCCCCCC)C2O)OC(CO)C1OP(=O)(O)O [Lipid A 1, 6-O-{2-Deoxy-2-[(R)-3-dodecanoyloxy-tetradecanoylamino]-3-O—[(R)-3-tetradecanoyloxy-tetradecanoyl]-β-D-glucopyranosyl}-2-deoxy-3-O—[(R)-3-hydroxy-tetradecanoyl]-2-[(R)-3-hydroxy-tetradecanoylamino]-α-D-glucopyranose 1,4′-bisphosphate] |  | 565 ± 25 pg/mL | clear dose response curves | 724 ± 25 pg/mL | 249 ± 29 pg/mL | 6778 ± 214 pg/mL | 5531 ± 214 pg/mL | 3924 ± 179 pg/mL | 92 ± 2 pg/mL
4 | CCCCCCCCCCCC(=O)OC(CCCCCCCCCCC)CC(=O)NC1C(OCC2OC(OP(=O)(O)O)C(NC(=O)CC(O)CCCCCCCCCCC)C(OC(=O)CC(O)CCCCCCCCC)C2O)OC(CO)C(OP(=O)(O)O)C1OC(=O)CC(CCCCCCCCC)OC(=O)CCCCCCCCCCC [Lipid A 2, 6-O-{2-Deoxy-3-O—[(R)-3-dodecanoyloxy-dodecanoyl]-2-[(R)-3-dodecanoyloxy-tetradecanoylamino]-β-D-glucopyranosyl}-2-deoxy-3-O—[(R)-3-hydroxy-dodecanoyl]-2-[(R)-3-hydroxy-tetredecanoylamino]-α-D-glucopyranose 1,4′-bisphosphate] |  | 587 ± 87 pg/mL | clear dose response curves | 654 ± 37 pg/mL | 299 ± 42 pg/mL | 7207 ± 277 pg/mL | 6851 ± 216 pg/mL | 4223 ± 329 pg/mL | 82 ± 2 pg/mL
5 | CCCCCCCCCCCCCCCC(=O)OC(CCCCCCCCCCC)CC(=O)NC1C(OP(=O)(O)O)OC(COC2OC(CO)C(OP(=O)(O)O)C(OC(=O)CC(CCCCCCCCC)OC(=O)CCCCCCCCCCC)C2NC(=O)CC(CCCCCCCCCCC)OC(=O)CCCCCCCCCCC)C(O)C1OC(=O)CC(O)CCCCCCCCC [Lipid A 4, 6-O-{2-Deoxy-3-O—[(R)-3-dodecanoyloxy-dodecanoyl]-2-[(R)-3-dodecanoyloxy-tetradecanoylamino]-β-D-glucopyranosyl}-2-deoxy-2-[(R)-3-hexadecanoyloxy-tetredecanoylamino]-3-O—[(R)-3-hydroxy-dodecanoyl]-α-D-glucopyranose 1,4′-bisphosphate] |  | 610 ± 35 pg/mL | clear dose response curves | 710 ± 44 pg/mL | 233 ± 12 pg/mL | 7320 ± 415 pg/mL | 5360 ± 263 pg/mL | 4178 ± 250 pg/mL | 86 ± 4 pg/mL
